# Structures can show the parent of a compound that is named as a salt. Where two headings read alike, the source gives them in different places.
# How the values were obtained:
# ALPK1 = ALPK1 (Homo sapiens (Human), UniProt Q96QP1); experiment: ALPK1 in vitro kinase assay (HTRF of TIFA phosphorylation); type: biochemical
# Experimental: ALPK1 kinase activity was measured in an in vitro assay using ADP-Heptose as the ALPK1 ligand and activator of its kinase activity and TIFA protein as the ALPK1 phosphorylation substrate. Since phosphorylated TIFA proteins oligomerize, Homogeneous Time-Resolved Fluorescence (HTRF) was used to measure protein:protein interaction between HA-tagged TIFA proteins as an indicator of TIFA phosphorylation.
# In brief, dose-response studies were performed with HEK293 cells cultured in Dulbecco's Modified Eagle Medium (DMEM) supplemented 10% fetal bovine serum (FBS, Hyclone™) containing antibiotics (pen/strep, G418) in 384-well assay plates. Each well contained 0.1 mg TIFA, ALPK1 (2 nM final concentration in reaction mixture) and kinase buffer (100 mM of HEPES pH 7.4, 4 mM DTT, 40 mM MgCl2, 20 mM of β-Glycerol phosphate disodium salt, 0.4 mM of Na3VO4, 0.16 mg/mL). Titrations of the test compounds were prepared in dimethylsulphoxide (DMSO). The reaction was initiated by addition of ATP and ADP-Heptose.
# For HTRF, samples were incubated with a Tb cryptate-labeled anti-HA antibody for capturing HA-tagged proteins according to the manufacturer's instructions (PerkinElmer™, CisBio™) and the fluorescence signal was quantified (Tecan Infinite F NANO+). HTRF signals were calculated as the HTRF ratio (ratio of fluorescence measured at 665 nm and 620 nm)×104 (thereby using the signal at 620 nm as an internal standard).
# IC50 values were determined using 3- or 4-parameter logistic equation using GraphPad Prism version 6.00. The reference compound, A027, was used as a positive control for each plate.
# [1] = test system: ALPK1-dependent NFκB reporter gene activation; experiment: NFκB gene reporter alkaline phosphatase assay in HEK293 G9 cells; type: cell-based, human; details: read-out: NFkB assay IC50
# Experimental: An alkaline phosphatase reporter assay system was used to measure inhibition of ALPK1-dependent NFκB reporter gene activation. Briefly, HEK293 cells stably expressing an NF-kB reporter (referred to herein as “G9 cells”) were maintained in DMEM as described above. For the assay, cells were seeded into 96-well plates at a density of 10,000 cells/well in Freestyle-M 293 Expression Medium (ThermoFisher), and allowed to attach overnight. […] NFkB gene activation was detected using the chromogenic substrate, para-nitrophenyl phosphate (pNPP) according to the manufacturer's protocols (pNPP Phosphatase Assay, Beyotine Biotechnology).
# [2] = test system: ALPK1-dependent innate immunity gene expression in PBMC; experiment: Inhibition of ALPK1 in PBMC cells (innate immunity gene mRNA, RT-PCR); type: in vivo, Sprague-Dawley (SD) rats; details: SD rats, 10 mpk oral, 2 h before ip ALPK1 agonist, blood 3 h later, compared with vehicle group
# Experimental: We examined whether ALPK1 inhibitors can suppress ALPK1-dependent activation of a set of such genes in rats. […] PBMCs were collected and gene expression analyzed, as described in more detail below.
# After 3 hours administration of the ALPK1 agonist, the blood was collected from heart, and PBMC were extracted from each group.
# [3] = test system: ALPK1-TIFA-IL1β pathway in THP-1-derived macrophage cells; experiment: PMA-differentiated THP-1 cell based assay (IL1β mRNA after ALPK1 agonist); details: Homo sapiens; PMA-differentiated THP-1 cells, 2 h pretreatment, 4 h ALPK1 agonist; read-out: IC50 of IL1β mRNA induced by ALPK1 activation
# Experimental: Peripheral blood mononuclear cells (PBMCs) from Kawasaki patients show activation of ALPK1-TIFA-IL1β pathway. […] THP-1 cells were cultured in RPMI 1640 containing 10% heat inactivated FBS, penicillin (100 units/ml) and streptomycin ([…]), and maintained in a humidified incubator with 95% atmospheric air and 5% CO2. Prior to the experiment, THP-1 cells were seeded into 24-well flat-bottom plate at a cell density of […]. Phorbol myristate acetate (PMA; 50 ng/mil) was used to treat THP-i cells for 48 h, and then THP-1-derived macrophages were obtained. […] Total RNA was extracted using the TRIzol method and reverse-transcribed. The mRNA expression levels IL1β were detected by SYBR green gene expression assays. Expression levels of mRNA were normalized to GAPDH. Relative expression was calculated by comparing to vehicle control and the values were plotted as fold induction. All activity results were expressed as the mean of triplicate determinations.
# [4] = test system: ALPK1-dependent innate immunity gene expression; experiment: Inhibition of ALPK1 in coronary artery, aorta and heart muscle (innate immunity gene mRNA, RT-PCR); type: in vivo, Sprague-Dawley (SD) rats; details: SD rats, 40 mpk oral, 2 h before ip ALPK1 agonist, tissue 3 h later, compared with vehicle group
# [5] = ADP-Heptose activated ALPK1, TIFA substrate, HTRF
# Chain of ALPK1 (Q96QP1 whole entry): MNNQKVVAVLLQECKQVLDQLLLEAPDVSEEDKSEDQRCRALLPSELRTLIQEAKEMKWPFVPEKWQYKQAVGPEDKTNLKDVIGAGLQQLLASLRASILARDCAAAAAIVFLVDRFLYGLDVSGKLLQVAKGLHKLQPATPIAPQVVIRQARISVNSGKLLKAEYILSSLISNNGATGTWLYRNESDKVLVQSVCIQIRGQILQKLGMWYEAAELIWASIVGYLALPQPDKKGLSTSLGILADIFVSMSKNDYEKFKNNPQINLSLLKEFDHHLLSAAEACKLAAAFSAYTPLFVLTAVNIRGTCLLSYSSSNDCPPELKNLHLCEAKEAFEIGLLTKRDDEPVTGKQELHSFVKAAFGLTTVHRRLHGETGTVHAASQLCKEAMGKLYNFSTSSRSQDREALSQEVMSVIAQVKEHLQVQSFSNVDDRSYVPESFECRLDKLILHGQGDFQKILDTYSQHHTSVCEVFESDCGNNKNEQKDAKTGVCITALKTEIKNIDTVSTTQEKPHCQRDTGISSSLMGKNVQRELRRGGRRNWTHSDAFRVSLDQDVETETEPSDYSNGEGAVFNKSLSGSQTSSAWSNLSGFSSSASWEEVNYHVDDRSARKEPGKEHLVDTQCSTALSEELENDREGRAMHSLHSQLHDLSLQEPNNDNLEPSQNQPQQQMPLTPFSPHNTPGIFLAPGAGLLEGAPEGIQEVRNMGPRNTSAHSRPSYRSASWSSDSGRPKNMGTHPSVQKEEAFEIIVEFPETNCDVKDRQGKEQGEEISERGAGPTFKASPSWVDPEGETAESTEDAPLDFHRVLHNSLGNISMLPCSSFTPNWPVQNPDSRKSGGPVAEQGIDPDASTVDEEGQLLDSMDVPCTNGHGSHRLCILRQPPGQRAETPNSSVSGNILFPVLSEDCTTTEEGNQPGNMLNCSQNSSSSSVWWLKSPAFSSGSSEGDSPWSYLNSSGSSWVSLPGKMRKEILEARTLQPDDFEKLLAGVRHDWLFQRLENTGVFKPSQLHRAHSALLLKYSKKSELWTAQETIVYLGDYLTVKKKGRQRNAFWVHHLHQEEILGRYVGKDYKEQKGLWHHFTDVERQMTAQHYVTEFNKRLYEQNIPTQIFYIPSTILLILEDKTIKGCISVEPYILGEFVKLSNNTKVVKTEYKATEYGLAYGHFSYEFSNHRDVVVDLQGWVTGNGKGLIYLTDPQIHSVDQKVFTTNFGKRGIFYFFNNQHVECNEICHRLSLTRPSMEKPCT
compound,measurement,setting,value
"C#C[C@@](C)(c1ccc(F)cc1)c1csc(NC(=O)NCCO)n1 (stereo in doubt) [A283, 1-(4-(2-(4-fluorophenyl)but-3-yn-2-yl)thiazol-2-yl)-3-(2-hydroxyethyl)urea]",IC50,ALPK1,550 nM
"C#C[C@](C)(c1ccc(Cl)cc1)c1csc(NC(=O)c2ccc(N3CCNCC3)cc2)n1 (stereo in doubt) [B092, N-(4-(2-(4-chlorophenyl)but-3-yn-2-yl)thiazol-2-yl)-4-(piperazin-1-yl)benzamide]",IC50,ALPK1; [5],219 nM
"C#C[C@@](C)(c1ccc(Cl)cc1)c1csc(NC(=O)c2ccc(N3CCNCC3)cc2)n1 (stereo in doubt) [B093, N-(4-(2-(4-chlorophenyl)but-3-yn-2-yl)thiazol-2-yl)-4-(piperazin-1-yl)benzamide]",IC50,ALPK1; [5],43 nM
"CC(C)(c1ccc(Br)cc1)c1csc(NC(=O)NCc2cccc(N3CCNCC3)c2)n1 [A005, 1-(4-(2-(4-bromophenyl)propan-2-yl)thiazol-2-yl)-3-(3-(piperazin-1-yl)benzyl)urea]",IC50,"[1]; Homo sapiens, HEK293",3150 nM
same,IC50,ALPK1,97 nM
"COc1ccc(C(C)(C)c2csc(NC(=O)NCc3cnccn3)n2)cc1 [A007, 1-(4-(2-(4-methoxyphenyl)propan-2-yl)thiazol-2-yl)-3-(pyrazin-2-ylmethyl)urea]",IC50,"[1]; Homo sapiens, HEK293",5580 nM
same,IC50,ALPK1,91 nM
"COc1ccc(C(C)(C)c2csc(NC(=O)NCCCCNc3ccccc3)n2)cc1 [A147, 1-(4-(2-(4-methoxyphenyl)propan-2-yl)thiazol-2-yl)-3-(4-(phenylamino)butyl)urea]",IC50,ALPK1,235 nM
"COc1ccc(C(C)(C)c2csc(NC(=O)NCc3cc(F)c(C4CCNCC4)c(F)c3)n2)cc1 [A151, 1-(3,5-difluoro-4-(piperidin-4-yl)benzyl)-3-(4-(2-(4-methoxyphenyl)propan-2-yl)thiazol-2-yl)urea hydrochloride]",IC50,"[1]; Homo sapiens, HEK293",950 nM
"C#C[C@@](C)(c1ccc(Cl)cc1)c1csc(NC(=O)NCCO)n1 [A176, (S)-1-(4-(2-(4-chlorophenyl)but-3-yn-2-yl)thiazol-2-yl)-3-(2-hydroxyethyl)urea]","mRNA expressions of PBMC CCL-2, CCL-7, CXCL-1, CXCL-10, CXCL-11 and IL-1β",[2],significantly decreased
same,IC50,[3],97 nM
"CC(C)(c1ccc(I)cc1)c1csc(NC(=O)NCc2cnc(N3CCNCC3)nc2)n1 [A178, 1-(4-(2-(4-iodophenyl)propan-2-yl)thiazol-2-yl)-3-((2-(piperazin-1-yl)pyrimidin-5-yl)methyl)urea]",IC50,ALPK1,42 nM
"COc1ccc(C(C)(C)c2csc(NC(=O)NCc3ccc(N4CCC(N)C4)nc3)n2)cc1 (stereo not drawn) [A199, 1-((6-(3-aminopyrrolidin-1-yl)pyridin-3-yl)methyl)-3-(4-(2-(4-methoxyphenyl)propan-2-yl)thiazol-2-yl)urea]",IC50,"[1]; Homo sapiens, HEK293",460 nM
"COc1ccc(C(C)(C)c2csc(NC(=O)NCc3cc(F)c(N4CCNCC4)cc3F)n2)cc1 [A231, 1-(2,5-difluoro-4-(piperazin-1-yl)benzyl)-3-(4-(2-(4-methoxyphenyl)propan-2-yl)thiazol-2-yl)urea hydrochloride]",IC50,"[1]; Homo sapiens, HEK293",3360 nM
"COc1ccc(C(C)(C)c2csc(NC(=O)N3CC(c4ccc(N5CCNCC5)cc4)C3)n2)cc1 [A233, N-(4-(2-(4-methoxyphenyl)propan-2-yl)thiazol-2-yl)-3-(4-(piperazin-1-yl)phenyl)azetidine-1-carboxamide]",IC50,"[1]; Homo sapiens, HEK293",330 nM
"C#CC(C)(c1ccc(OC)cc1)c1csc(NC(=O)NC(C)c2ccc(N3CCNCC3)cc2)n1 (stereo not drawn) [A234, 1-(4-(2-(4-methoxyphenyl)but-3-yn-2-yl)thiazol-2-yl)-3-(1-(4-(piperazin-1-yl)phenyl)ethyl)urea]",IC50,ALPK1,36 nM
"COc1ccc(C(C)(CO)c2csc(NC(=O)NC(C)c3ccc(N4CCNCC4)cc3)n2)cc1 (stereo not drawn) [A235, 1-(4-(1-hydroxy-2-(4-methoxyphenyl)propan-2-yl)thiazol-2-yl)-3-(1-(4-(piperazin-1-yl)phenyl)ethyl)urea]",IC50,ALPK1,61 nM
"C#CC(C)(c1ccc(Br)cc1)c1csc(NC(=O)NCCN2CCNCC2)n1 (stereo not drawn) [A239, 1-(4-(2-(4-bromophenyl)but-3-yn-2-yl)thiazol-2-yl)-3-(2-(piperazin-1-yl)ethyl)urea]",IC50,ALPK1,20 nM
"C#C[C@](C)(c1ccc(OC)cc1)c1csc(NC(=O)N2CC(CO)C2)n1 [A255, (R)-3-(hydroxymethyl)-N-(4-(2-(4-methoxyphenyl)but-3-yn-2-yl)thiazol-2-yl)azetidine-1-carboxamide]",IC50,ALPK1,109 nM
"C#C[C@@](C)(c1ccc(OC)cc1)c1csc(NC(=O)N2CC(CO)C2)n1 [A256, (S)-3-(hydroxymethyl)-N-(4-(2-(4-methoxyphenyl)but-3-yn-2-yl)thiazol-2-yl)azetidine-1-carboxamide]",IC50,ALPK1,43 nM
"C#C[C@](C)(c1ccc(Cl)cc1)c1csc(NC(=O)N2CC(CO)C2)n1 [A257, (R)-N-(4-(2-(4-chlorophenyl)but-3-yn-2-yl)thiazol-2-yl)-3-(hydroxymethyl)azetidine-1-carboxamide]",IC50,ALPK1,246 nM
"C#C[C@@](C)(c1ccc(Cl)cc1)c1csc(NC(=O)N2CC(CO)C2)n1 [A258, (S)-N-(4-(2-(4-chlorophenyl)but-3-yn-2-yl)thiazol-2-yl)-3-(hydroxymethyl)azetidine-1-carboxamide]",IC50,ALPK1,57 nM
C#CC(C)(c1ccc(Cl)cc1)c1csc(NC(=O)N2CCc3cc(N4CCNCC4)ccc3C2)n1 (stereo not drawn) [A281],IC50,[1],860 nM
"C#CC(C)(c1ccc(Cl)cc1)c1csc(NC(=O)c2ccc(N3CCNCC3)cc2F)n1 (stereo not drawn) [B065, N-(4-(2-(4-chlorophenyl)but-3-yn-2-yl)thiazol-2-yl)-2-fluoro-4-(piperazin-1-yl)benzamide]",IC50,ALPK1; [5],34 nM
"C#CC(C)(c1ccc(Cl)cc1)c1csc(NC(=O)c2ccc(N3CCNCC3)c(OC)c2)n1 (stereo not drawn) [B066, N-(4-(2-(4-chlorophenyl)but-3-yn-2-yl)thiazol-2-yl)-3-methoxy-4-(piperazin-1-yl)benzamide]",IC50,ALPK1; [5],29 nM
"C#C[C@@](C)(c1ccc(Cl)cc1)c1csc(NC(=O)c2c(F)cc(N3CCNCC3)cc2F)n1 [C008, (S)-N-(4-(2-(4-chlorophenyl)but-3-yn-2-yl)thiazol-2-yl)-2,6-difluoro-4-(piperazin-1-yl)benzamide]","mRNA expressions of PBMC CCL-7, CXCL-1, CXCL-10, CXCL-11, IL-1β, TNF-α and IL-6",[2],significantly decreased
same,IC50,[3],15 nM
same,"mRNA expression of aorta IL-6, CXCL-1, CXCL-10, CCL-2",[4],significantly decreased
same,"mRNA expression of cardiac muscle TNF-a, IL-1b, IL-6, CXCL-1, CXCL-10, CXCL-11, CCL-2 and CCL-5",[4],significantly decreased
same,"mRNA expression of coronary artery TNF-α, CXCL-1, CCL-2 and CCL-7",[4],significantly decreased
